Experimental data: patent US20180332847A1, “ANTIMICROBIAL METAL CARBOXYLATE-BENZISOTHIAZOLINONE MIXTURES” (Troy Corporation, priority 2017, published 2018)

Experiments:
Assay type in all cases: cell-based
Alternaria alternata = assay: Minimum Inhibitory Concentration (MIC) by spiral plater / spiral gradient endpoint against Alternaria alternata
Method: (§1) Synergistic Index=Qa/QA+Qb/QB [Equation No. 1] • where Qa=the quantity of component A used in a binary mixture that gives the desired effect • QA=the quantity of component A which when used alone gives the desired effect • Qb=the quantity of component B used in a binary mixture that gives the desired effect • QB=the quantity of component B which when used alone gives the desired effect
(§2) Minimum Inhibitory Concentration (“MIC”) for each of the antimicrobial compositions was determined against a test microbe, which in this case was a spore suspension of the fungus Alternaria alternata, with the aid of an Autoplate 4000 spiral plater that is commercially available from Spiral Biotech, Inc., Norwood, Mass., and its accompanying spiral gradient endpoint software (hereinafter referred to as “the SGE software”). The spiral plater automates the normal serial dilution method for determining MICs. Although the details of the SGE software are held confidentially by Spiral Biotech, Inc., they are believed to consistent with the principles set forth in “Measurement of MICs of antibacterial agents by spiral gradient endpoint compared with conventional dilution method” J. H. Paton, H. A. Holt, and M. J. Bywater—Int. J. Exp. Clin. Chemother, 1990.
Spore suspensions for the test microbe were prepared by growing Alternaria alternata on a Difco malt agar slant in an incubator for 1 week at 28° C. Spores were loosened by adding a small amount of buffer solution at pH 7.0 and scraping with a sterile nichrome wire loop. This process was repeated twice. The buffer solution included phosphate buffer and magnesium chloride, and was obtained commercially from Thomas Scientific Company, as Lot #023-0703.
Loosened spores were removed from the slant by aseptically pouring them into a sterile bottle containing 30 ml of the buffer solution and a volume of approximately 40 ml of 6 mm diameter borosilicate glass beads. The bead bottle was shaken to disperse the spores and adjusted to a final liquid volume of 50 ml. For use as a test inoculum, spore density was adjusted in distilled water blanks to that of a 0.5 McFarland nephelometer standard.
(§3) The spiral plater automatically applied 54.3 micro-liters of each antimicrobial composition of interest to the surface of 150 millimeter malt agar plates using an exponential application gradient. The concentration of the antimicrobial concentration was greatest near the center of the Petri plates and decreased toward the edges. Antimicrobial composition gradients were allowed to air dry at room temperature for 1 to 4 hours at 23° C. before inoculation with test microbe. Spiral gradient plates were inoculated by streaking with cotton swabs that had been soaked in test microbe spore suspension. Streaks were applied in a radial pattern, using a paper template generated by the SGE software to guide the application. Eight radii were inoculated per Petri plate. Each radius is considered as one replicated observation.
(§4) Inoculated spiral gradient plates were incubated for 48 hours in an incubator at 28° C. Visible growth of the test microbe developed along the radial streaks and ended where the concentration of the antimicrobial composition was sufficient to prevent growth. This growth endpoint value (expressed in mm as measured from center point of the Petri plate) was used to calculate MIC for the mixture, expressed as parts per million.
Utilizing the procedure described above in Example 1, Minimum Inhibitory Concentration (“MIC”) for each of the antimicrobial compositions was determined against a test microbe, which in this case was a spore suspension of the […] Alternaria alternata.

Pseudomonas aeruginosa = assay: Minimum Inhibitory Concentration (MIC) by spiral plater / spiral gradient endpoint against Pseudomonas aeruginosa; details: quantity of BIT used alone that gives the desired effect, Pseudomonas aeruginosa
Method: as §1, §2, §3, §4
Utilizing the procedure described above in Example 1, Minimum Inhibitory Concentration (“MIC”) for each of the antimicrobial compositions was determined against a test microbe, which in this case was a spore suspension of the bacterium Pseudomonas aeruginosa. Several antimicrobial compositions containing calcium gluconate, BIT, or both in water were investigated, as shown below in Table 7.
Utilizing the procedure described above in Example 1, Minimum Inhibitory Concentration (“MIC”) for each of the antimicrobial compositions was determined against a test microbe, which in this case was a […] Pseudomonas aeruginosa. Several antimicrobial compositions containing calcium glycerate, BIT, or both in water were investigated, as shown below in Table 13.
Utilizing the procedure described above in Example 1, Minimum Inhibitory Concentration (“MIC”) of certain antimicrobial compositions was determined against a test microbe, which in this case was a spore suspension of the bacterium Pseudomonas aeruginosa. Several antimicrobial compositions containing zinc gluconate, BIT, or both in water were investigated, as shown below in Table 19.

[1] = system: mixed bacterial inoculum: Pseudomonas aeruginosa (ATCC #10145), Escherichia coli (ATCC #11229), Enterobacter aerogenes (ATCC #13048), Alcaligenes faecalis …; assay: Two-part bacterial challenge of acrylic latex paint samples with a mixed inoculum (performance ratings); design: key to Performance Ratings Week 1, 1 Day / Performance Ratings Week 1, 2 Days / Performance Ratings Week 1, 8 Days / Performance Ratings Week 2, 1 Day / Performance Ratings Week 2, 2 Days / Performance Ratings Week 2, 8 Days: 0: No bacterial growth; 1: Trace of bacterial growth; 2: Light bacterial growth; 3: Moderate bacterial growth; 4: Heavy bacterial growth; details: for Performance Ratings Week 1, 1 Day: Week 1, 1 Day after inoculation; for Performance Ratings Week 1, 2 Days: Week 1, 2 Days after inoculation; for Performance Ratings Week 1, 8 Days: Week 1, 8 Days after inoculation; for Performance Ratings Week 2, 1 Day: Week 2, 1 Day after inoculation; for Performance Ratings Week 2, 2 Days: Week 2, 2 Days after inoculation; for Performance Ratings Week 2, 8 Days: Week 2, 8 Days after inoculation
Method: In order to quantify the antibacterial effectiveness of an antimicrobial composition of interest, samples were prepared by adding various amounts of the antimicrobial composition to identical volumes of a paint that contained no preservatives and was not contaminated by bacteria. In this case, the test sample was a white, aqueous-based, acrylic latex paint. The paint included an acrylic resin, and conventional additives such as surfactant, thickener, defoamer, and titanium oxide.
The samples of the paint were subjected to a two-part challenge procedure and the sample that provided acceptable anti-bacterial protection with the lowest concentration of the antimicrobial composition was identified. Each part of the anti-bacterial challenge consisted of a 7-day test cycle. The parts were performed consecutively over 14 test days.
Challenge testing was accomplished using a mixed bacterial inoculum as the contamination event. These bacteria are Pseudomonas aeruginosa (ATCC #10145), Escherichia coli (ATCC #11229), Enterobacter aerogenes (ATCC #13048), and Alcaligenes faecalis (ATCC #25094). To prepare the test inoculum, each type of bacteria was harvested separately in nutrient broth. Just before use in the challenge test, equal strengths of each bacterial culture were mixed to obtain an inoculum of approximately 10^8 colony forming units per milliliter (cfu/mL).
After incubation, both control blanks and samples containing preservatives of interest were inoculated with the mixed inoculum to a final of 1.0 weight %. […]
Performance ratings of 0, 1, 2, 3 or 4 for each inoculated paint sample were determined by visual inspection of the streak lines, according to the definitions set forth below in Table 25.

## O=c1[nH]sc2ccccc12 [BIT, 1,2-benzisothiazol-3(2H)-one]
Alternaria alternata; MIC of BIT alone for Alternaria alternata, used for SI (zinc ethylhexanoate series)
  QB: 13 ppm
Alternaria alternata; MIC of BIT alone for Alternaria alternata, used for SI (zinc glycerate series)
  QB: 8.3 ppm
Alternaria alternata; quantity of BIT used alone that gives the desired effect, calcium ethylhexanoate-BIT series, Alternaria alternata
  QB: 13 ppm
Alternaria alternata; quantity of BIT used alone that gives the desired effect, calcium gluconate-BIT series, Alternaria alternata
  QB: 13 ppm
Alternaria alternata; quantity of BIT used alone that gives the desired effect, calcium glycerate-BIT series, Alternaria alternata
  QB: 85 ppm
Alternaria alternata; zinc ethylhexanoate-BIT series, Alternaria alternata
  ppm of BIT alone providing the same inhibition: 13 ppm
Alternaria alternata; zinc glycerate-BIT series, Alternaria alternata
  ppm of BIT alone providing the same inhibition: 8.3 ppm
Pseudomonas aeruginosa; calcium gluconate-BIT series
  QB: 85 ppm
Pseudomonas aeruginosa; calcium glycerate-BIT series
  QB: 27.5 ppm
Pseudomonas aeruginosa; zinc gluconate-BIT series
  QB: 661 ppm
[1]; 50 ppm in acrylic latex paint
  Performance Ratings Week 1, 1 Day: 4
  Performance Ratings Week 1, 2 Days: 4
  Performance Ratings Week 1, 8 Days: 4
  Performance Ratings Week 2, 1 Day: 4
  Performance Ratings Week 2, 2 Days: 4
  Performance Ratings Week 2, 8 Days: 4
[1]; 500 ppm in acrylic latex paint
  Performance Ratings Week 1, 1 Day: 4
  Performance Ratings Week 1, 2 Days: 2
  Performance Ratings Week 1, 8 Days: 0
  Performance Ratings Week 2, 1 Day: 4
  Performance Ratings Week 2, 2 Days: 4
  Performance Ratings Week 2, 8 Days: 0
